Reference: the supplement of paper PMC10307832

Key:
Assay in all cases: relative viability (nuclei count vs DMSO), 5 days (fraction); higher = more cells survive
[1] = compound: C1=CC=C(C(=C1)C2=CC=C(C=C2)C3=CSC4=C3C(=C(C(=O)N4)C#N)O)O + O=C(c1cc(Cc2n[nH]c(=O)c3ccccc23)ccc1F)N1CCN(C(=O)C2CC2)CC1 [Olaparib] (partner 8 µM)
Summary of the method: (§1)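 Lung cancer cell lines in 1536-well plates got either a single drug or a fixed anchor-drug dose together with five library-drug doses (not always all listed) in √10 steps, by pin tool, on the day after seeding. Nuclei were counted after 5 days, and relative viability is the treated-to-vehicle ratio of nuclei counts. Values are medians of duplicate plates.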

TGX 221 + Phenformin = compound: CC1=CN2C(=O)C=C(N=C2C(=C1)C(C)NC3=CC=CC=C3)N4CCOCC4 [TGX 221] + N=C(N)NC(=N)NCCc1ccccc1 [Phenformin] (partner 250 µM)
Summary of the method: as §1

TGX 221 + Pemetrexed = compound: CC1=CN2C(=O)C=C(N=C2C(=C1)C(C)NC3=CC=CC=C3)N4CCOCC4 [TGX 221] + Nc1nc2[nH]cc(CCc3ccc(C(=O)N[C@@H](CCC(=O)O)C(=O)O)cc3)c2c(=O)[nH]1 [Pemetrexed] (partner 0.2 µM)
Summary of the method: as §1

TGX 221 + Olaparib = compound: CC1=CN2C(=O)C=C(N=C2C(=C1)C(C)NC3=CC=CC=C3)N4CCOCC4 [TGX 221] + O=C(c1cc(Cc2n[nH]c(=O)c3ccccc23)ccc1F)N1CCN(C(=O)C2CC2)CC1 [Olaparib] (partner 8 µM)
Summary of the method: as §1

Cell Line	relative viability ([1]; first compound 0.08 µM)	relative viability ([1]; first compound 0.253 µM)	relative viability ([1]; first compound 0.8 µM)	relative viability ([1]; first compound 2.53 µM)	relative viability ([1]; first compound 8 µM)	relative viability (TGX 221 + Phenformin; first compound 0.08 µM)	relative viability (TGX 221 + Phenformin; first compound 0.253 µM)	relative viability (TGX 221 + Phenformin; first compound 0.8 µM)	relative viability (TGX 221 + Phenformin; first compound 2.53 µM)	relative viability (TGX 221 + Phenformin; first compound 8 µM)	relative viability (TGX 221 + Pemetrexed; first compound 0.08 µM)	relative viability (TGX 221 + Pemetrexed; first compound 0.253 µM)	relative viability (TGX 221 + Pemetrexed; first compound 0.8 µM)	relative viability (TGX 221 + Pemetrexed; first compound 2.53 µM)	relative viability (TGX 221 + Pemetrexed; first compound 8 µM)	relative viability (TGX 221 + Olaparib; first compound 0.08 µM)	relative viability (TGX 221 + Olaparib; first compound 0.253 µM)	relative viability (TGX 221 + Olaparib; first compound 0.8 µM)	relative viability (TGX 221 + Olaparib; first compound 2.53 µM)	relative viability (TGX 221 + Olaparib; first compound 8 µM)
LXF-289	1.1	1.24	0.958	1.01	1.02	0.496	0.479	0.546	0.458	0.538	0.926	0.918	0.897	0.937	0.961	1.02	1.03	1.09	1.03	1.11
PC-3 [JPC-3]	1.11	1.37	1.15	1.23	1.24	0.463	0.459	0.469	0.47	0.477	1.08	1.09	1.11	1.04	1	1.12	1.02	1.25	1.06	1.07
BEN	0.987	1.38	1.03	1.19	0.971	0.24	0.257	0.273	0.27	0.265	0.728	0.715	0.727	0.645	0.775	1.16	0.887	1.05	0.882	1.01
NCI-H1355	0.734	0.956	0.745	0.775	0.553	0.439	0.465	0.439	0.419	0.433	1.03	1.02	1.05	0.998	0.893	0.714	0.669	0.718	0.668	0.619
NCI-H441	0.548	0.539	0.64	0.716	0.462	0.791	0.911	0.79	0.785	1.09	0.238	0.224	0.231	0.28	0.266	0.578	0.571	0.515	0.524	0.589
SW 900	–	1.13	0.869	0.903	0.839	0.572	0.455	0.473	0.448	0.525	–	0.459	0.469	0.41	0.415	–	0.787	0.701	0.578	0.562
EKVX	0.98	0.929	0.778	0.856	0.716	0.213	0.225	0.232	0.22	0.221	0.404	0.356	0.34	0.375	0.395	0.75	0.758	0.792	0.691	0.709
NCI-H358	0.4	0.654	0.531	0.562	0.587	0.355	0.31	0.296	0.382	0.324	0.189	0.167	0.168	0.166	0.174	0.626	0.565	0.705	0.545	0.582
